Laboratory results from ChEMBL document CHEMBL3885861, “Open TG-GATES”.

Species: Rattus norvegicus
Test: Open TG-GATES - Regimen: Single
Assay type: toxicity, organism-based, Sprague-Dawley
Set-up: regimen Single, gender Male, age 6 weeks
Conditions: in vivo, po, route gavage; for gamma-GTP / ALP / ALT / AST / BUN / CRE / Ca / Cl / DBIL / GLC / IP / K / LDH / Na / PL / RALB / TBIL / TC / TG / TP: tissue Plasma; for APTT / Bas / Eos / Fbg / Ht / Lym / MCH / MCHC / MCV / Mono / Neu / PT / Plat / RBC / Ret / WBC: tissue Blood; for KIDNEY_L / KIDNEY_R / KIDNEY_TOTAL: tissue Kidney; for LIVER: tissue Liver

## Cc1cccc(Nc2cc(Cl)nc(SCC(=O)O)n2)c1C [PIRINIXIC ACID]
0 mg/kg, 24 h, dose level Control
  gamma-GTP: 1.2 IU/L
10 mg/kg, 3 h, dose level Low
  TERMINAL_BW: 205.8 g
  APTT: 14 s
  Bas: 0%
  Eos: 0.6%
  Fbg: 312.8 mg/dL
  Ht: 39.2%
  Lym: 70.2%
  MCH: 21.2 pg
  MCHC: 34.1%
  MCV: 62.1 fL
  Mono: 2.6%
  Neu: 26%
  PT: 12.2 s
  Plat: 125.7 x10_4/uL
  RBC: 631.2 x10_4/ul
  Ret: 8.2%
  WBC: 82.9 x10_2/uL
  KIDNEY_L: 0.8 g
  KIDNEY_R: 0.9 g
  KIDNEY_TOTAL: 1.7 g
  LIVER: 8.8 g
  ALP: 1833.4 IU/L
  ALT: 49 IU/L
  AST: 74 IU/L
  BUN: 11 mg/dL
  CRE: 0.2 mg/dL
  Ca: 11.2 mg/dL
  Cl: 103.8 meq/L
  DBIL: 0.058 mg/dL
  GLC: 191 mg/dL
  IP: 11.1 mg/dL
  K: 4.1 meq/L
  LDH: 66.4 IU/L
  Na: 139.8 meq/L
  PL: 173 mg/dL
  RALB: 2.6 g/dL
  TBIL: 0.044 mg/dL
  TC: 87.6 mg/dL
  TG: 161 mg/dL
  TP: 5.7 g/dL
  gamma-GTP: 1 IU/L
10 mg/kg, 6 h, dose level Low
  TERMINAL_BW: 203.8 g
  APTT: 16 s
  Bas: 0%
  Eos: 0.6%
  Fbg: 266.8 mg/dL
  Ht: 39.9%
  Lym: 76.2%
  MCH: 22 pg
  MCHC: 34.3%
  MCV: 64.2 fL
  Mono: 2%
  Neu: 20.6%
  PT: 12.4 s
  Plat: 111.3 x10_4/uL
  RBC: 622.6 x10_4/ul
  Ret: 7.5%
  WBC: 80 x10_2/uL
  KIDNEY_L: 0.9 g
  KIDNEY_R: 0.8 g
  KIDNEY_TOTAL: 1.7 g
  LIVER: 7.9 g
  ALP: 1630.4 IU/L
  ALT: 43.6 IU/L
  AST: 79.2 IU/L
  BUN: 10 mg/dL
  CRE: 0.2 mg/dL
  Ca: 10.8 mg/dL
  Cl: 106.2 meq/L
  DBIL: 0.028 mg/dL
  GLC: 190.2 mg/dL
  IP: 10.7 mg/dL
  K: 4.1 meq/L
  LDH: 55.8 IU/L
  Na: 141.8 meq/L
  RALB: 2.6 g/dL
  TBIL: 0.038 mg/dL
  TC: 70.8 mg/dL
  TG: 76.8 mg/dL
  TP: 5.5 g/dL
  gamma-GTP: 1.2 IU/L
10 mg/kg, 9 h, dose level Low
  TERMINAL_BW: 203.6 g
  APTT: 16.8 s
  Bas: 0%
  Eos: 0.6%
  Fbg: 248.4 mg/dL
  Ht: 38.9%
  Lym: 73.6%
  MCH: 21.7 pg
  MCHC: 34.5%
  MCV: 63 fL
  Mono: 2.2%
  Neu: 23%
  PT: 12.5 s
  Plat: 105.9 x10_4/uL
  RBC: 618 x10_4/ul
  Ret: 7.7%
  WBC: 67.5 x10_2/uL
  KIDNEY_L: 0.9 g
  KIDNEY_R: 0.9 g
  KIDNEY_TOTAL: 1.7 g
  LIVER: 7.8 g
  ALP: 1462.6 IU/L
  ALT: 35.4 IU/L
  AST: 69.2 IU/L
  BUN: 9.4 mg/dL
  CRE: 0.2 mg/dL
  Ca: 10.6 mg/dL
  Cl: 105 meq/L
  DBIL: 0.024 mg/dL
  GLC: 191.2 mg/dL
  IP: 10.6 mg/dL
  K: 3.7 meq/L
  LDH: 53.2 IU/L
  Na: 141.2 meq/L
  PL: 121.8 mg/dL
  RALB: 2.6 g/dL
  TBIL: 0.034 mg/dL
  TC: 63.8 mg/dL
  TG: 76.6 mg/dL
  TP: 5.3 g/dL
  gamma-GTP: 1.4 IU/L
10 mg/kg, 24 h, dose level Low
  TERMINAL_BW: 212.4 g
  APTT: 15.7 s
  Bas: 0.2%
  Eos: 0.8%
  Fbg: 217.8 mg/dL
  Ht: 38.2%
  Lym: 77%
  MCH: 21.4 pg
  MCHC: 34.2%
  MCV: 62.6 fL
  Mono: 2.2%
  Neu: 19.6%
  PT: 12.8 s
  Plat: 111.5 x10_4/uL
  RBC: 611 x10_4/ul
  Ret: 7.3%
  WBC: 90.6 x10_2/uL
  KIDNEY_L: 0.9 g
  KIDNEY_R: 0.9 g
  KIDNEY_TOTAL: 1.9 g
  LIVER: 10.8 g
  ALP: 1927 IU/L
  ALT: 47 IU/L
  AST: 71.4 IU/L
  BUN: 13.6 mg/dL
  CRE: 0.2 mg/dL
  Ca: 11 mg/dL
  Cl: 104.2 meq/L
  DBIL: 0.022 mg/dL
  GLC: 191.4 mg/dL
  IP: 8.7 mg/dL
  K: 4 meq/L
  LDH: 57 IU/L
  Na: 143.2 meq/L
  PL: 108.8 mg/dL
  RALB: 2.5 g/dL
  TBIL: 0.034 mg/dL
  TC: 54.8 mg/dL
  TG: 49.4 mg/dL
  TP: 5.1 g/dL
  gamma-GTP: 1 IU/L
